Measured values: BindingDB's records for doi:10.3109/14756366.2013.813942 (Istituto di Biostrutture e Bioimmagini-CNR, 2014)
Counter-ions that a name gives are not always drawn.

Target: T1, Carbonic anhydrase [110-330] (Coastal plain yellowtops, UniProt P46510)
T1 construct: 110-330
T1 sequence (P46510 whole entry): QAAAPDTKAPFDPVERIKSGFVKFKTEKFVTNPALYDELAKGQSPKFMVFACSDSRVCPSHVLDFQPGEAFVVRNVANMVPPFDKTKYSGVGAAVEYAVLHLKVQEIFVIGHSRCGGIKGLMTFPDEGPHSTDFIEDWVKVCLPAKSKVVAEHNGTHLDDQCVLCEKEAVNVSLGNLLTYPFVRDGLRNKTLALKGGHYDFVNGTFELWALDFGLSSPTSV
Test: Stopped Flow CO2 Hydration Assay
Conditions: pH 8.3; 20 °C
Method: Inhibition constants of carboxylate inhibitors against F. bidentis CA I were determined by a stopped flow CO2 hydration assay at 20 °C.

Compound | Ki
O=C(O)C(=O)O | 93 µM
CC(=O)C(=O)O [Pyruvate] | > 10000 µM
CC(O)C(=O)O (centres undefined) | 74.1 µM
O=C(O)CC(=O)O [sodium malonate] | 100 µM
O=C(O)CC(O)C(=O)O (centres undefined) | 92.5 µM
CCC(=O)O | 91 µM
O=C(O)/C=C\C(=O)O [sodium maleate] | 73.2 µM
CCCCC(=O)O | 77.5 µM
CCCC(=O)O | 82.3 µM
O=CO | 97.5 µM
O=C(O)CC(O)(CC(=O)O)C(=O)O [SODIUM CITRATE] | 41.4 µM
CC(=O)O [sodium acetate] | 95.1 µM
O=C(O)c1c(F)c(F)cc(F)c1F [2,3,5,6-F4-Benzoate] | 51.2 µM
O=C(O)c1ccccc1 [SODIUM BENZOATE] | 64.5 µM
